Measured values as given in the supplement of paper PMC11061612.

Legend:
Assay in all cases: Bliss excess, mean over the matrix (fraction); higher = more synergy
[1] = system: CAPAN-1 (Pancreatic Carcinoma)
Procedure, shortened: (§1)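 Cell lines in DMEM/F12 or RPMI with 10% FBS were plated in 1536-well plates, held 24 hours at 37°C, 5% CO2, then given two-drug dose matrices for 72 hours (DMSO typically 0.2%). Viability was read by CellTiter-Glo 2.0 luminescence and scaled as inhibition from 0 (vehicle wells) to 1 (blank wells). Combination Emax is the second-highest inhibition in the matrix; Bliss excess is observed combination effect minus expected EA + EB − EA·EB, EA and EB being single-agent effects.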

[2] = system: EN (Endometrial Carcinoma)
Procedure, shortened: as §1

[3] = system: HARA (Squamous Cell Lung Carcinoma)
Procedure, shortened: as §1

[4] = system: HMV-II (Melanoma)
Procedure, shortened: as §1

[5] = system: HO-1-u-1 (Oral Cavity Carcinoma)
Procedure, shortened: as §1

[6] = system: Hs-633T (Other Solid Carcinomas)
Procedure, shortened: as §1

[7] = system: LoVo (Colorectal Carcinoma)
Procedure, shortened: as §1

[8] = system: MDA-MB-468 (Breast Carcinoma)
Procedure, shortened: as §1

[9] = system: NB14 (Neuroblastoma)
Procedure, shortened: as §1

[10] = system: NCI-H69 (Small Cell Lung Carcinoma)
Procedure, shortened: as §1

[11] = system: PCI-30 (Head and Neck Carcinoma)
Procedure, shortened: as §1

[12] = system: RT-112 (Bladder Carcinoma)
Procedure, shortened: as §1

[13] = system: SUP-T1 (T-Lymphoblastic Leukemia)
Procedure, shortened: as §1

[14] = system: 639-V (Bladder Carcinoma)
Procedure, shortened: as §1

[15] = system: KARPAS-231 (B-Cell Non-Hodgkin's Lymphoma)
Procedure, shortened: as §1

[16] = system: LB771-HNC (Head and Neck Carcinoma)
Procedure, shortened: as §1

[17] = system: NCI-H747 (Colorectal Carcinoma)
Procedure, shortened: as §1

[18] = system: OVCAR-8 (Ovarian Carcinoma)
Procedure, shortened: as §1

[19] = system: TE-4 (Esophageal Squamous Cell Carcinoma)
Procedure, shortened: as §1

[20] = system: UMC-11 (Other Solid Carcinomas)
Procedure, shortened: as §1

SMILES | Bliss excess [1] | Bliss excess [2] | Bliss excess [3] | Bliss excess [4] | Bliss excess [5] | Bliss excess [6] | Bliss excess [7] | Bliss excess [8] | Bliss excess [9] | Bliss excess [10] | Bliss excess [11] | Bliss excess [12] | Bliss excess [13] | Bliss excess [14] | Bliss excess [15] | Bliss excess [16] | Bliss excess [17] | Bliss excess [18] | Bliss excess [19] | Bliss excess [20]
C=CCn1c(=O)c2cnc(Nc3ccc(N4CCN(C)CC4)cc3)nc2n1-c1cccc(C(C)(C)O)n1 [AZD1775] + CCc1c2c(nc3ccc(O)cc13)-c1cc3c(c(=O)n1C2)COC(=O)[C@]3(O)CC [SN-38] (first compound max 1 µM, partner max 0.3 µM) | -0.0635 | 0.0209 | -0.015 | -0.122 | 0.0391 | -0.0522 | -0.0388 | -0.0811 | -0.007 | -0.0629 | 0.0013 | 0.109 | -0.105 |  |  |  |  |  |  | 
C=CCn1c(=O)c2cnc(Nc3ccc(N4CCN(C)CC4)cc3)nc2n1-c1cccc(C(C)(C)O)n1 [AZD1775] + C1CN(CCC1(C(=O)N[C@@H](CCO)C2=CC=C(C=C2)Cl)N)C3=NC=NC4=C3C=CN4 [Capivasertib] (first compound max 3 µM, partner max 3 µM) |  | -0.0623 | -0.0002 | -0.0774 | 0.037 | 0.0389 | 0.0281 |  | -0.0551 | -0.0601 | -0.0677 | -0.0348 | -0.0212 | -0.0541 | 0.0311 | -0.0581 | -0.0485 | -0.0167 | -0.045 | 0.0101
COc1nnc2ccc(N3CCC(c4ccc(OCCN5CCN(C)C(=O)[C@H]5C)cc4)CC3)nn12 [AZD5153] + Cc1c2c(nn1C)CSCc1cc(n(C)n1)CSc1cc(c3ccccc3c1)OCCCc1c(C(=O)O)n(C)c3c-2c(Cl)ccc13 [AZD5991] (first compound max 1 µM, 7x7, partner max 1 µM) | -0.0534 | 0.0144 | -0.0142 | -0.0092 | -0.0055 | 0.0227 | -0.0383 |  | 0.034 | -0.0507 | -0.0218 | 0.0039 | -0.021 | -0.0552 | -0.128 | 0.0475 | -0.0442 | 0.0205 | -0.0212 | 0.0518
Cn1cnc2c(F)c(Nc3ccc(Br)cc3Cl)c(C(=O)NOCCO)cc21 [Selumetinib] + CCN(CCO)CCCOc1ccc2c(Nc3cc(CC(=O)Nc4cccc(F)c4)[nH]n3)ncnc2c1 [AZD2811] (first compound max 10 µM, 7x7, partner max 1 µM) | -0.0209 | -0.0862 | 0.0522 | -0.0477 | 0.0038 | 0.0395 | 0.0139 |  | -0.0491 | -0.056 | -0.0396 | -0.0741 | 0.0328 | -0.0438 | -0.0043 | -0.0486 | -0.0428 | 0.0121 | -0.0273 | -0.0446
C[C@@H](c1ccc2nccn2c1)n1nnc2ncc(-c3cnn(C)c3)nc21 [Savolitinib] + Cc1c2c(nn1C)CSCc1cc(n(C)n1)CSc1cc(c3ccccc3c1)OCCCc1c(C(=O)O)n(C)c3c-2c(Cl)ccc13 [AZD5991] (first compound max 1 µM, 7x7, partner max 1 µM) | -0.0702 | -0.0027 | -0.0353 | -0.0404 | -0.034 | -0.0551 | -0.0331 |  | -0.0411 | -0.0269 | -0.0878 | -0.0265 | -0.0571 | -0.111 | -0.0258 | -0.054 | -0.0465 | -0.0327 | -0.0289 | -0.0026
COc1nnc2ccc(N3CCC(c4ccc(OCCN5CCN(C)C(=O)[C@H]5C)cc4)CC3)nn12 [AZD5153] + Cn1cnc2c(F)c(Nc3ccc(Br)cc3Cl)c(C(=O)NOCCO)cc21 [Selumetinib] (first compound max 1 µM, 7x7, partner max 10 µM) | -0.0226 | 0.023 | 0.0308 | 0.0275 | 0.0747 | 0.0302 | 0.065 |  | -0.0325 | -0.0503 | -0.0426 | 0.0423 | -0.052 | -0.0459 | -0.0464 | -0.0895 | -0.0727 | 0.0159 | 0.0311 | -0.031
Cn1cnc2c(F)c(Nc3ccc(Br)cc3Cl)c(C(=O)NOCCO)cc21 [Selumetinib] + C=CCn1c(=O)c2cnc(Nc3ccc(N4CCN(C)CC4)cc3)nc2n1-c1cccc(C(C)(C)O)n1 [AZD1775] (first compound max 10 µM, partner max 1 µM) | -0.0399 | -0.126 | -0.0406 | -0.0494 | 0.0454 | -0.0094 | -0.0105 |  | -0.0193 | -0.0312 | -0.0183 | -0.0352 | -0.0663 | -0.0207 | -0.0167 | -0.0937 | -0.0761 | 0.0202 | -0.0849 | 0.0137
COc1nnc2ccc(N3CCC(c4ccc(OCCN5CCN(C)C(=O)[C@H]5C)cc4)CC3)nn12 [AZD5153] + C=CCn1c(=O)c2cnc(Nc3ccc(N4CCN(C)CC4)cc3)nc2n1-c1cccc(C(C)(C)O)n1 [AZD1775] (first compound max 1 µM, partner max 1 µM) | -0.0397 | -0.0753 | -0.0899 | -0.0783 | -0.0526 | -0.0516 | -0.0349 |  | -0.073 | -0.0303 | -0.0307 | -0.0342 | -0.068 | -0.0367 | -0.112 | -0.0069 | -0.0633 | -0.0631 | -0.0199 | 0.0058
